Experimental data: patent US12077503B2, “Substituted cyclic amides and their use as herbicides” (FMC CORPORATION, priority 2015, dated 2024)
Where two headings read alike, the source gives them in different places.

What was measured:
Type in all cases: in vivo
[1] = system: barnyardgrass (Echinochloa crus-galli); test: Test A preemergence; conditions: Echinochloa crus-galli, pre-emergence, 240 h, preemergence; for pest or weed control at 125 g/ha: 125 g ai/ha; for pest or weed control at 500 g/ha: 500 g ai/ha
Procedure, shortened: (§1)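 Seeds sprayed preemergence with a directed soil spray, or plants at 2 to 10 cm height and one- to two-leaf stage sprayed postemergence, with test chemicals in a non-phytotoxic solvent mixture containing surfactant, in loam soil–sand blend. Injury rated visually against untreated controls after about 10 d in greenhouse, 0 (no effect) to 100 (complete control).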

[2] = system: giant foxtail (Setaria faberii); test: Test A preemergence; conditions: Setaria faberi, pre-emergence, 240 h, preemergence; for pest or weed control at 125 g/ha: 125 g ai/ha; for pest or weed control at 500 g/ha: 500 g ai/ha
Procedure, shortened: as §1

[3] = system: ragweed (common ragweed, Ambrosia elatior); test: Test A preemergence; conditions: Ambrosia artemisiifolia, pre-emergence, 240 h, preemergence; for pest or weed control at 125 g/ha: 125 g ai/ha; for pest or weed control at 500 g/ha: 500 g ai/ha
Procedure, shortened: as §1

Kochia (Kochia scoparia) = test: Test A preemergence; conditions: Bassia scoparia, pre-emergence, 240 h, preemergence; for pest or weed control at 125 g/ha: 125 g ai/ha; for pest or weed control at 500 g/ha: 500 g ai/ha
Procedure, shortened: as §1

[4] = system: ryegrass, Italian (Italian ryegrass, Lolium multiflorum); test: Test A preemergence; conditions: Lolium multiflorum, pre-emergence, 240 h, preemergence; for pest or weed control at 125 g/ha: 125 g ai/ha; for pest or weed control at 500 g/ha: 500 g ai/ha
Procedure, shortened: as §1

[5] = system: pigweed (Amaranthus retroflexus); test: Test A preemergence; conditions: Amaranthus retroflexus, pre-emergence, 240 h, preemergence; for pest or weed control at 125 g/ha: 125 g ai/ha; for pest or weed control at 500 g/ha: 500 g ai/ha
[6] = system: barnyardgrass (Echinochloa crus-galli); test: Test B flooded paddy test; conditions: Echinochloa crus-galli, 250 g ai/ha, Flood, read-out: Barnyardgrass plant response rating
Procedure, shortened: (§2)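 Greenhouse paddy pots with 2-leaf stage plants received compound by direct addition to floodwater 3 cm deep, kept at that level. Scored visually at 13–15 d versus controls (0 no effect; 100 complete control).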

[7] = system: ducksalad (Heteranthera limosa); test: Test B flooded paddy test; conditions: Heteranthera limosa, 250 g ai/ha, Flood, read-out: Ducksalad plant response rating
Procedure, shortened: as §2

[8] = system: sedge, umbrella (small-flower umbrella sedge, Cyperus difformis); test: Test B flooded paddy test; conditions: Cyperus difformis, 250 g ai/ha, Flood, read-out: Sedge, Umbrella plant response rating
Procedure, shortened: as §2

rice (Oryra sativa) = test: Test B flooded paddy test; conditions: Oryza sativa, 250 g ai/ha, Flood, read-out: Rice plant response rating
Procedure, shortened: as §2

[9] = system: blackgrass (Alopecurus myosuroides); test: Test A postemergence; conditions: Alopecurus myosuroides, post-emergence, 240 h, postemergence; for pest or weed control at 125 g/ha: 125 g ai/ha
Procedure, shortened: as §1

[10] = system: wheat (Triticum aestivum); test: Test A postemergence; conditions: Triticum aestivum, post-emergence, 240 h, postemergence; for plant injury at 125 g/ha: 125 g ai/ha
Procedure, shortened: as §1

[11] = system: giant foxtail (Setaria faberii); test: Test A postemergence; conditions: Setaria faberi, post-emergence, 240 h, postemergence; for pest or weed control at 125 g/ha: 125 g ai/ha
Procedure, shortened: as §1

[12] = system: ryegrass, Italian (Italian ryegrass, Lolium multiflorum); test: Test A postemergence; conditions: Lolium multiflorum, post-emergence, 240 h, postemergence; for pest or weed control at 125 g/ha: 125 g ai/ha
Procedure, shortened: as §1

[13] = system: pigweed (Amaranthus retroflexus); test: Test A postemergence; conditions: Amaranthus retroflexus, post-emergence, 240 h, postemergence; for pest or weed control at 125 g/ha: 125 g ai/ha
Procedure, shortened: as §1

[14] = 0 to 100 scale where 0 is no effect and 100 is complete control
[15] = scale of 0 to 100 where 0 is no effect and 100 is complete control

Question: How did the pest or weed control at 125 g/ha ([1]; visual injury rating, 0 to 100 scale where 0 is no effect and 100 is complete control, approximately 10 d, read-out: Barnyardgrass plant response rating) turn out when `CN1CC[C@H](c2ccc(C(F)(F)F)cc2)[C@@H](C(=O)Nc2ccccc2C(F)(F)F)C1=O` [Compound 1224] was run?
Answer: 40%

Question: And the pest or weed control at 500 g/ha ([1]; 0 to 100 scale where 0 is no effect and 100 is complete control, read-out: Barnyardgrass plant response rating)?
Answer: 80%

Question: And the pest or weed control at 125 g/ha ([2]; visual injury rating, 0 to 100 scale where 0 is no effect and 100 is complete control, approximately 10 d, read-out: Foxtail, Giant plant response rating)?
Answer: 80%

Question: What about the pest or weed control at 500 g/ha ([2]; 0 to 100 scale where 0 is no effect and 100 is complete control, read-out: Foxtail, Giant plant response rating) of the same compound?
Answer: 90%

Question: What about the pest or weed control at 125 g/ha ([3]; visual injury rating, 0 to 100 scale where 0 is no effect and 100 is complete control, approximately 10 d, read-out: Ragweed plant response rating) of the same compound?
Answer: 0%

Question: What about the pest or weed control at 500 g/ha ([3]; 0 to 100 scale where 0 is no effect and 100 is complete control, read-out: Ragweed plant response rating) of the same compound?
Answer: 20%

Question: And the pest or weed control at 125 g/ha (Kochia (Kochia scoparia); visual injury rating, 0 to 100 scale where 0 is no effect and 100 is complete control, approximately 10 d, read-out: Kochia plant response rating)?
Answer: 0%

Question: And the pest or weed control at 500 g/ha (Kochia (Kochia scoparia); 0 to 100 scale where 0 is no effect and 100 is complete control, read-out: Kochia plant response rating)?
Answer: 0%

Question: And the pest or weed control at 125 g/ha ([4]; visual injury rating, 0 to 100 scale where 0 is no effect and 100 is complete control, approximately 10 d, read-out: Ryegrass, Italian plant response rating)?
Answer: 0%

Question: What about the pest or weed control at 500 g/ha ([4]; 0 to 100 scale where 0 is no effect and 100 is complete control, read-out: Ryegrass, Italian plant response rating) of the same compound?
Answer: 20%

Question: What about the pest or weed control at 125 g/ha ([5]; visual injury rating, 0 to 100 scale where 0 is no effect and 100 is complete control, approximately 10 d, read-out: Pigweed plant response rating) of the same compound?
Answer: 50%

Question: What about the pest or weed control at 500 g/ha ([5]; 0 to 100 scale where 0 is no effect and 100 is complete control, read-out: Pigweed plant response rating) of the same compound?
Answer: 70%

Question: What about the pest or weed control at 250 g/ha [6, 14] of the same compound?
Answer: 0%

Question: And the pest or weed control at 250 g/ha [7, 14]?
Answer: 70%

Question: What about the pest or weed control at 250 g/ha [8, 14] of the same compound?
Answer: 0%

Question: What about the pest or weed control at 250 g/ha (rice (Oryra sativa); [14]) of the same compound?
Answer: 0%

Question: And the pest or weed control at 125 g/ha ([9]; visual injury vs untreated controls after approx. 10 d, 0 = no effect, 100 = complete control, read-out: Blackgrass plant response rating (0 to 100 scale))?
Answer: 0%

Question: What about the pest or weed control at 500 g/ha ([9]; 500 g ai/ha, 0 to 100 scale, 0 is no effect, 100 is complete control, read-out: Blackgrass plant response rating) of the same compound?
Answer: 0%

Question: What about the plant injury at 125 g/ha ([10]; visual injury vs untreated controls after approx. 10 d, 0 = no effect, 100 = complete control, read-out: Wheat plant response rating (0 to 100 scale)) of the same compound?
Answer: 0%

Question: What about the plant injury at 500 g/ha ([10]; 500 g ai/ha, 0 to 100 scale, 0 is no effect, 100 is complete control, read-out: Wheat plant response rating) of the same compound?
Answer: 0%

Question: What about the pest or weed control at 125 g/ha ([11]; visual injury vs untreated controls after approx. 10 d, 0 = no effect, 100 = complete control, read-out: Foxtail, Giant plant response rating (0 to 100 scale)) of the same compound?
Answer: 30%

Question: And the pest or weed control at 500 g/ha ([11]; 500 g ai/ha, 0 to 100 scale, 0 is no effect, 100 is complete control, read-out: Foxtail, Giant plant response rating)?
Answer: 70%

Question: And the pest or weed control at 125 g/ha ([12]; visual injury vs untreated controls after approx. 10 d, 0 = no effect, 100 = complete control, read-out: Ryegrass, Italian plant response rating (0 to 100 scale))?
Answer: 0%

Question: And the pest or weed control at 500 g/ha ([12]; 500 g ai/ha, 0 to 100 scale, 0 is no effect, 100 is complete control, read-out: Ryegrass, Italian plant response rating)?
Answer: 0%

Question: And the pest or weed control at 125 g/ha ([13]; visual injury vs untreated controls after approx. 10 d, 0 = no effect, 100 = complete control, read-out: Pigweed plant response rating (0 to 100 scale))?
Answer: 0%

Question: What about the pest or weed control at 500 g/ha ([13]; 500 g ai/ha, 0 to 100 scale, 0 is no effect, 100 is complete control, read-out: Pigweed plant response rating) of the same compound?
Answer: 20%

Question: How did the pest or weed control at 125 g/ha ([1]; visual rating after approx. 10 d, 0 to 100 scale where 0 is no effect and 100 is complete control, read-out: Plant response rating, Barnyardgrass) turn out when `CN1C[C@H](c2cc(F)cc(F)c2)[C@@H](C(=O)Nc2ccc(F)cc2C(F)(F)F)C1=O` [Compound 758] was run?
Answer: 100%

Question: What about the pest or weed control at 500 g/ha ([1]; 0 to 100 scale, 0 = no effect, 100 = complete control, read-out: Plant response rating, Barnyardgrass) of the same compound?
Answer: 100%

Question: And the pest or weed control at 125 g/ha ([2]; visual rating after approx. 10 d, 0 to 100 scale where 0 is no effect and 100 is complete control, read-out: Plant response rating, Foxtail, Giant)?
Answer: 100%

Question: And the pest or weed control at 500 g/ha ([2]; 0 to 100 scale, 0 = no effect, 100 = complete control, read-out: Plant response rating, Foxtail, Giant)?
Answer: 100%

Question: What about the pest or weed control at 125 g/ha ([3]; visual rating after approx. 10 d, 0 to 100 scale where 0 is no effect and 100 is complete control, read-out: Plant response rating, Ragweed) of the same compound?
Answer: 0%

Question: What about the pest or weed control at 500 g/ha ([3]; 0 to 100 scale, 0 = no effect, 100 = complete control, read-out: Plant response rating, Ragweed) of the same compound?
Answer: 0%

Question: And the pest or weed control at 125 g/ha (Kochia (Kochia scoparia); visual rating after approx. 10 d, 0 to 100 scale where 0 is no effect and 100 is complete control, read-out: Plant response rating, Kochia)?
Answer: 0%

Question: And the pest or weed control at 500 g/ha (Kochia (Kochia scoparia); 0 to 100 scale, 0 = no effect, 100 = complete control, read-out: Plant response rating, Kochia)?
Answer: 60%

Question: And the pest or weed control at 125 g/ha ([4]; visual rating after approx. 10 d, 0 to 100 scale where 0 is no effect and 100 is complete control, read-out: Plant response rating, Ryegrass, Italian)?
Answer: 30%

Question: And the pest or weed control at 500 g/ha ([4]; 0 to 100 scale, 0 = no effect, 100 = complete control, read-out: Plant response rating, Ryegrass, Italian)?
Answer: 70%

Question: And the pest or weed control at 125 g/ha ([5]; visual rating after approx. 10 d, 0 to 100 scale where 0 is no effect and 100 is complete control, read-out: Plant response rating, Pigweed)?
Answer: 0%

Question: And the pest or weed control at 500 g/ha ([5]; 0 to 100 scale, 0 = no effect, 100 = complete control, read-out: Plant response rating, Pigweed)?
Answer: 20%

Question: And the pest or weed control at 250 g/ha [6, 15]?
Answer: 45%

Question: What about the pest or weed control at 250 g/ha [7, 15] of the same compound?
Answer: 100%

Question: What about the pest or weed control at 250 g/ha [8, 15] of the same compound?
Answer: 0%

Question: What about the pest or weed control at 250 g/ha (rice (Oryra sativa); [15]) of the same compound?
Answer: 0%

Question: What about the pest or weed control at 125 g/ha ([9]; visual injury after approximately 10 d, 0 to 100 scale (0 no effect, 100 complete control), read-out: Plant response rating, Blackgrass) of the same compound?
Answer: 0%

Question: And the plant injury at 125 g/ha ([10]; visual injury after approximately 10 d, 0 to 100 scale (0 no effect, 100 complete control), read-out: Plant response rating, Wheat)?
Answer: 0%

Question: And the pest or weed control at 125 g/ha ([11]; visual injury after approximately 10 d, 0 to 100 scale (0 no effect, 100 complete control), read-out: Plant response rating, Foxtail, Giant)?
Answer: 80%

Question: And the pest or weed control at 125 g/ha ([12]; visual injury after approximately 10 d, 0 to 100 scale (0 no effect, 100 complete control), read-out: Plant response rating, Ryegrass, Italian)?
Answer: 0%

Question: And the pest or weed control at 125 g/ha ([13]; visual injury after approximately 10 d, 0 to 100 scale (0 no effect, 100 complete control), read-out: Plant response rating, Pigweed)?
Answer: 0%
